The IC50 is the point on the concentration scale where inhibition reaches its midpoint. A low value points to greater potency.

The source of these data is article PMC11481179, “Development and Application of Reversible and Irreversible Covalent Probes for Human and Mouse Cathepsin‐K Activity Detection, Revealing Nuclear Activity” (Advanced Science, 2024).

SMILES strings stand for the structures.

For one data set, the system named is U-87 MG cells. Briefly: Cell viability assay (methylene blue). It counts as cell-based, human. The note with it: 48 h incubation. The procedure:
U-2 OS, U-87 MG, and enriched monocyte cells were grown at 370 C with 5% of CO2 in the
respective medium as described previously. Cells were seeded (1500 cells/well in 96 wells
plate) one day before the incubation with indicated probe or inhibitor at various concentrations.
After 48 h cells were fixed, and viability was measured by quantitative colorimetric assay using
methylene blue according to the procedure reported by Ben-Bassat et al. The data were
expressed as a percentage of control; data represent the mean of 2 experiments with triplicates
for each treatment (± standard deviation).
Fluorescent imaging of CTSK activity in lung tissue: Freshly resected human lung cancer and
normal lung tissues or mouse normal lung and primary lung cancer were embedded in OCT,
frozen in liquid nitrogen, and kept at - 80° C. Tissues were sectioned into 10 μm thick slices
using a cryostat (Leica). The slides were defrosted and washed with 1X PBS. Then the slides
were pretreated with DMSO or GD30 (5 µM) in buffer acetate for 1 h at 37° C. Afterward,
GD32 (0.75uM) or DMSO in buffer acetate were applied to the slides for 4 h at 37° C. Three
short washes with 1X PBS were done and the slides were left in 1X PBS for overnight
incubation at 4° C. The next day, slides were mounted with DAPI-Fluoromount-G® before
visualization by confocal microscopy. Olympus FV10i was used for human samples, whereas
Zeiss was used for mouse samples.
Details of the synthesis of the compounds
Synthesis of Compound (2)

Data set [1] concerns the target T1, endogenous CTSK in intact U-2 OS cells (Homo sapiens, UniProt P43235).
T1 construct: ability to label endogenous CTSK activity in intact cells; endogenous in cells; host or cells: U-2 OS
T1 sequence (P43235 115-329): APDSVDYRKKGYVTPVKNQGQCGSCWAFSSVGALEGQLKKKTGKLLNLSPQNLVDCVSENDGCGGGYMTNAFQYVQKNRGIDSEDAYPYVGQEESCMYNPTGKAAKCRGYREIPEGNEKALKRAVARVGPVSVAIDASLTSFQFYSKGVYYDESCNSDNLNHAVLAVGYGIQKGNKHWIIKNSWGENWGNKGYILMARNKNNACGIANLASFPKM
As to the kind of experiment: Labeling of endogenous CTSK in intact cells, fluorescent SDS-PAGE. It counts as cell-based. Conditions: inhibitor 5 µM, 2 h, then GD32 5 µM. The protocol:
To test probe selectivity and the ability to label endogenous CTSK activity in intact cells, three cell lines were selected: human osteosarcoma MG‐63 and U‐2 OS, and human glioblastoma U‐87 MG; all cell lines express CTSK along with other lysosomal cathepsins.^[ [44] ^] First, the ABPs were incubated with intact U‐2 OS cells for different durations of time, and the probe selectivity toward CTSK was examined, with a pan cathepsin ABP, GB123, used as a control that labels CTS B, K, L, and S in cells. After cell lysis, the probe‐labeled enzymes were resolved and detected by a fluorescent scan of the SDS‐PAGE. […] Specifically, intact MG‐63 cells required a 5 h incubation (Figure 2b,c), while U‐87 MG cells required a 2 h incubation (Figure 2d).
Figure 2 Labeling of endogenous CTSK in intact cells. a) U2‐OS cells were treated with DMSO or 5 µM of the indicated inhibitors in culture medium, for 2 h, then with indicated ABPs [5 µM] in a culture medium for indicated times, followed by cell lysis, SDS‐PAGE separation, and fluorescent scanning of the gel at 635/670 nm. An immunoblot of CTSK of the same gel is presented below. b) Intact MG63 cells were treated with GD32 5 µM in the culture media for indicated times, cell lysates were analyzed as in a. CTSK immunoblot is presented, pro and mature CTSK are indicated by arrows. c) MG63 cells and d) U87MG cells were treated with DMSO, or 5 µM of indicated inhibitors in culture medium for 2 h, followed by incubation with 5 µM of indicated probes for 5 h (GD32 and GD42) and 2 h (GB123), cell lysates were analyzed by fluorescent SDS PAGE as in a. […] In (c) a CTSK immunoblot of a representative MG63 lane on the right. e) Labeling of active mature CTSK by GD32 in A549 and U2‐0S cells in externally adjusted different pH. Cells were incubated with 5 µM GD32 for 24 h in growth media at indicated pHs, prior to the cell lysis, cell lysates were analysed as in a. CTSK immunoblot below. f) A549 cells were incubated with increasing concentrations of GD30 for 2 h at pH = 5, followed by the incubation with 5 µM GD32 for 24 h prior to the cell lysis, cell lysates were analyzed as in a. g) Intact U‐87 MG cells or U‐87 MG cell lysates were treated with 5 µM GD32 for 2 h, the intact cells were then lysed and all lysates were analyzed as in (a). h) Intact or lysates of U‐87MG were treated with GD32 for 2 h then immunoprecipitation was done with an anti‐CTSK antibody. Input (I), immunoprecipitation (IP), and output (O) were separated by a 14% SDS‐PAGE and scanned for fluorescence. The gel was then blotted and reacted with an anti‐cystatin B antibody below. ODN (Odanacatib), GB111 (GB111‐NH2), mCTSK (mature CTSK). […]
deoxycholate). After adding sample buffer, samples were boiled for 10 minutes, and analyzed […]
lysates were analyzed as described above. […]

A further data set concerns the target T2, CTSK (Homo sapiens, UniProt P43235).
T2 sequence (P43235 115-329): T1 sequence (P43235 115-329)
As to the kind of experiment: In vitro kinetic evaluation of cathepsin inhibition, fluorescent substrate Z-FR-AMC. It counts as biochemical. From the text: (§1) used for TLC. Phosphate Buffer Saline (PBS) was purchased from Biological Industries (pH = […]
(§2) 7.4) and was used as a buffer system in all experiments if not indicated otherwise. […]
(§3) Recombinant human CTSB, CTSK, CTSL, and CTSS were supplied by B. Turk (J.
(§4) Stefan Institute).[1] […]
Fluorescent gels were scanned by a Typhoon FLA 9500 flatbed laser scanner (GE Healthcare […]
Bio-Sciences AB, Uppsala, Sweden). BioRad ChemiDox XRS+ was used for western blot […]
analysis. Olympus FV10i inverted microscope (Tokyo,Japan) with Fluoview software or Zeiss […]
Confocal LSM 980 with Airyscan (Germany) with Zen software were used for confocal […]
(§5) In vitro kinetic evaluation of labeling recombinant cathepsins:
(§6) Reactions were monitored for 30 min at 37° C in 96-well black flat-bottom microplates […]
(Greiner, Germany) using Tecan […] M1000 pro plate reader (Tecan, Switzerland), […]
(§7) substrates Z-RR-AMC (CTSL) or Z-FR-AMC (CTSS, CTSB and CTSK), and excitation and […]
emission wavelengths of 370 and 460 nm, respectively. Cathepsin concentrations in the assay were 0.4 nM (CTSK) or 5 nM (CTSS, CTSB, and CTSL). The buffer was 100 mM Na2HPO4/NaH2PO4, 50 mM NaCl, 5 mM DTT, 0,1% Peg-6000, pH 6. For irreversible inhibitors, reaction data were fitted to the one-phase association formula in GraphPad Prism 9 software: Y=Y0 + (Plateau-Y0)*(1-exp(-K*X)) where in this case Y0 and Y represent fluorescence signal at times 0 and t, respectively, K represent the observed reaction rate kobs and X the inhibitor concentration. Inactivation rates at each inhibitor concentration were […]
maximal rate of inactivation (kinact) was obtained as the asymptote from equation […]
for each X, and Kiapp is the apparent inhibition constant. Ki values were calculated from IC50 or from Kiapp using formulas Ki = Kiapp / (1 + Km/S) and IC50 = E0/2 + Kiapp, where Km stands for Michalis-Menten constant, S for substrate concentration and E0 for cathepsin concentration.
(§8) The highest inhibitor concentrations in the assay were 50 µM. Measurements were performed in several independent duplicates. Average values are presented with standard deviations. […]

Another data set addresses CTSS (Homo sapiens, UniProt P25774). The description is as above. It counts as biochemical. The procedure:
as §1, §2, §3, §4, §5, §6
(Greiner, Germany) using Tecan INFINITE M1000 pro plate reader (Tecan, Switzerland), […]
as §7
emission wavelengths of 370 and 460 nm, respectively. Cathepsin concentrations in the assay were 0.4 nM (CTSK) or 5 nM (CTSS, CTSB, and CTSL). The buffer was 100 mM Na2HPO4/NaH2PO4, 50 mM NaCl, 5 mM DTT, 0,1% Peg-6000, pH 6. For irreversible inhibitors, reaction data were fitted to the one-phase association formula in GraphPad Prism 9 software: Y=Y0 + (Plateau-Y0)*(1-exp(-K*X)) where in this case Y0 and Y represent fluorescence signal at times 0 and t, respectively, K represent the observed reaction rate kobs and X the inhibitor concentration. Inactivation rates at each inhibitor concentration were obtained by subtracting the inactivation observed in the control sample: kobs – kctrl. The maximal rate of inactivation (kinact) was obtained as the asymptote from equation Y = kinact*X/(Kiapp + X) where X is inhibitor concentration, Y is the observed inactivation rate for each X, and Kiapp is the apparent inhibition constant. Ki values were calculated from IC50 or from Kiapp using formulas Ki = Kiapp / (1 + Km/S) and IC50 = E0/2 + Kiapp, where Km stands for Michalis-Menten constant, S for substrate concentration and E0 for cathepsin concentration.
as §8

Sequence of CTSS (P25774 115-331): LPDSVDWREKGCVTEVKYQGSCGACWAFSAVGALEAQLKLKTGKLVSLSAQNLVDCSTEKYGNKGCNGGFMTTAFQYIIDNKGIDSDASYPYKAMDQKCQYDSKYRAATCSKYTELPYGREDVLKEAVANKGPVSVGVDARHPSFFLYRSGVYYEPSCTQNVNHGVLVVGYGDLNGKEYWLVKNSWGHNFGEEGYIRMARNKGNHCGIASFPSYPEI

For the compound `Cc1cccc(C)c1C(=O)OCC(=O)[C@H](CCCCN)NC(=O)[C@H](Cc1ccccc1)NC(=O)OCc1ccccc1` [GB111‐NH2, reference compound], the cytotoxicity result in the data set on U-87 MG cells is recorded as “exhibited cytotoxicity”. Further, in data set [1], the “effect of inhibitor preincubation on GD32-labeled CTSK band” value is on record as “depletion of the CTSK‐specific band”.

For `CC(C)(F)C[C@H](N[C@@H](c1ccc(-c2ccc(S(C)(=O)=O)cc2)cc1)C(F)(F)F)C(=O)NC1(C#N)CC1` [ODN, odanacatib, reference compound], the mode of inhibition result on CTSK (CTSK) was “Reversible [Tight binding]”; on CTSS (CTSS), “Reversible”. Moreover, the IC50 on CTSK (CTSK 0.4 nM, tight binding) was found to be 0.94 nM; against CTSS (CTSS 5 nM), 140 nM. Moreover, in data set [1], the “effect of inhibitor preincubation on GD32-labeled CTSK band” value was “depletion of the CTSK‐specific band”.
